Consider 16 compounds from patent US20080269241A1, “BICYCLIC AMINOPROPYL TETRAHYDRO-PYRAZOLO-PYRIDINE MODULATORS OF CATHEPSIN S” (priority 2007, published 2008).

In the assay the target is T1, human cathepsin S (CatS) (Homo sapiens, UniProt P25774).
T1 construct: made in house; host or cells: baculovirus system (insect cells)
T1 sequence (P25774 115-331): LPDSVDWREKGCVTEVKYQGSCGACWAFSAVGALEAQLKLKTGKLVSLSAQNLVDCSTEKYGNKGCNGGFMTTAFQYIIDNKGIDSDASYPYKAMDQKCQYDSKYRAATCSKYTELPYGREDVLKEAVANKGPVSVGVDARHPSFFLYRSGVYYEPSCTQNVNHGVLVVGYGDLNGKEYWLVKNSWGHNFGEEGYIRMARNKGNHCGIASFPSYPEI
Description: Recombinant human cathepsin S (CatS) fluorogenic substrate inhibition assay. The class given is biochemical. The following applies: recombinant human CatS, 10 μM Z-Valine-Valine-Arginine-AMC, pH 5.0; average of results obtained; read-out: CatS IC50. The procedure:
Recombinant human cathepsin S (CatS) was expressed in the baculovirus system and purified in one step with a thiopropyl-sepharose column. […] The assay is run in 150 mM sodium acetate pH 5.0 containing 1.5 mM DTT and 150 mM NaCl. […] Measurements are taken every min for 20 min. The rate is calculated from the slope of the increase in fluorescence and the percent inhibition is calculated from this.
The IC50 is the concentration needed to halve the response being measured. As to `CS(=O)(=O)N1CCc2c(c(-c3ccc(Cl)c(NS(=O)(=O)c4ccccc4)c3)nn2CCCN2CCN(c3cccc(Cl)c3)CC2)C1` [Example 204, N-[2-Chloro-5-(1-{3-[4-(3-chloro-phenyl)-piperazin-1-yl]-propyl}-5-methanesulfonyl-4,5,6,7-tetrahydro-1H-pyrazolo[4,3-c]pyridin-3-yl)-phenyl]-benzenesulfonamide], the 50% inhibitory concentration (IC50) was 0.7 µM. Regarding `CN(C)Cc1cc(-c2nn(CCCN3CCC(N4CCCC4=O)CC3)c3c2CN(S(C)(=O)=O)CC3)ccc1C(F)(F)F` [Example 206, 1-(1-{3-[3-(3-Dimethylaminomethyl-4-trifluoromethyl-phenyl)-5-methanesulfonyl-4,5,6,7-tetrahydro-pyrazolo[4,3-c]pyridin-1-yl]-propyl}-piperidin-4-yl)-pyrrolidin-2-one], the 50% inhibitory concentration (IC50) was 2.52 µM.

As to `CS(=O)(=O)N1CCc2c(c(-c3ccc(Cl)c(CNc4ccccc4)c3)nn2CCCN2CCC(N3CCCC3=O)CC2)C1` [Example 207, 1-(1-{3-[3-(4-Chloro-3-phenylaminomethyl-phenyl)-5-methanesulfonyl-4,5,6,7-tetrahydro-pyrazolo[4,3-c]pyridin-1-yl]-propyl}-piperidin-4-yl)-pyrrolidin-2-one], the IC50 was found to be 2.25 µM.

Regarding `Cc1ccc(NCc2cc(-c3nn(CCCN4CCC(N5CCCC5=O)CC4)c4c3CN(S(C)(=O)=O)CC4)ccc2Cl)cc1` [Example 208, 1-[1-(3-{3-[4-Chloro-3-(p-tolylamino-methyl)-phenyl]-5-methanesulfonyl-4,5,6,7-tetrahydro-pyrazolo[4,3-c]pyridin-1-yl}-propyl)-piperidin-4-yl]-pyrrolidin-2-one], the IC50 turned out to be 0.28 µM. With `COc1ccc(NCc2cc(-c3nn(CCCN4CCC(N5CCCC5=O)CC4)c4c3CN(S(C)(=O)=O)CC4)ccc2Cl)cc1` [Example 209, 1-{1-[3-(3-{4-Chloro-3-[(4-methoxy-phenylamino)-methyl]-phenyl}-5-methanesulfonyl-4,5,6,7-tetrahydro-pyrazolo[4,3-c]pyridin-1-yl)-propyl]-piperidin-4-yl}-pyrrolidin-2-one], the IC50 turned out to be 0.66 µM. As to `CS(=O)(=O)N1CCc2c(c(-c3ccc(Cl)c(CNc4cccc(-c5ccccc5)c4)c3)nn2CCCN2CCC(N3CCCC3=O)CC2)C1` [Example 210, 1-[1-(3-{3-[3-(Biphenyl-3-ylaminomethyl)-4-chloro-phenyl]-5-methanesulfonyl-4,5,6,7-tetrahydro-pyrazolo[4,3-c]pyridin-1-yl}-propyl)-piperidin-4-yl]-pyrrolidin-2-one], the IC50 worked out at 0.63 µM. The value for `CC(C)c1cccc(NCc2cc(-c3nn(CCCN4CCC(N5CCCC5=O)CC4)c4c3CN(S(C)(=O)=O)CC4)ccc2Cl)c1` [Example 211, 1-{1-[3-(3-{4-Chloro-3-[(3-isopropyl-phenylamino)-methyl]-phenyl}-5-methanesulfonyl-4,5,6,7-tetrahydro-pyrazolo[4,3-c]pyridin-1-yl)-propyl]-piperidin-4-yl}-pyrrolidin-2-one] was 0.37 µM; that for `CN(C)c1ccc2c(n1)n(C1CCN(CC(O)Cn3nc(-c4ccc(C(F)(F)F)c(CN)c4)c4c3CCN(S(C)(=O)=O)C4)CC1)c(=O)n2C` (stereo not shown) [Example 216, 3-(1-{3-[3-(3-Aminomethyl-4-trifluoromethyl-phenyl)-5-methanesulfonyl-4,5,6,7-tetrahydro-pyrazolo[4,3-c]pyridin-1-yl]-2-hydroxy-propyl}-piperidin-4-yl)-5-dimethylamino-1-methyl-1,3-dihydro-imidazo[4,5-b]pyridin-2-one] was 0.6 µM; that for `CS(=O)(=O)c1csc(C(=O)NCc2cc(-c3nn(CC(O)CN4CCC(N5CCCC5=O)CC4)c4c3CN(S(C)(=O)=O)CC4)ccc2C(F)(F)F)c1Cl` (stereo not shown) [Example 217, 3-Chloro-4-methanesulfonyl-thiophene-2-carboxylic acid 5-(1-{2-hydroxy-3-[4-(2-oxo-pyrrolidin-1-yl)-piperidin-1-yl]-propyl}-5-methanesulfonyl-4,5,6,7-tetrahydro-1H-pyrazolo[4,3-c]pyridin-3-yl)-2-trifluoromethyl-benzylamide] was 0.6 µM. Consider `CC1CCCN(CC(=O)NCc2cc(-c3nn(CCCN4CCC(N5CCCC5=O)CC4)c4c3CN(S(C)(=O)=O)CC4)ccc2C(F)(F)F)C1` (stereo not shown) [Example 223, N-[5-(5-Methanesulfonyl-1-{3-[4-(2-oxo-pyrrolidin-1-yl)-piperidin-1-yl]-propyl}-4,5,6,7-tetrahydro-1H-pyrazolo[4,3-c]pyridin-3-yl)-2-trifluoromethyl-benzyl]-2-(3-methyl-piperidin-1-yl)-acetamide], for which the IC50 was 0.7 µM. The value for `CS(=O)(=O)N1CCc2c(c(-c3ccc(Cl)c(NC(=O)c4ccc([N+](=O)[O-])cc4)c3)nn2CCCN2CCN(c3cccc(Cl)c3)CC2)C1` [Example 226, N-[2-Chloro-5-(1-{3-[4-(3-chloro-phenyl)-piperazin-1-yl]-propyl}-5-methanesulfonyl-4,5,6,7-tetrahydro-1H-pyrazolo[4,3-c]pyridin-3-yl)-phenyl]-4-nitro-benzamide] was 0.76 µM. With `COc1ccc(C(=O)Nc2cc(-c3nn(CCCN4CCN(c5cccc(Cl)c5)CC4)c4c3CN(S(C)(=O)=O)CC4)ccc2Cl)cc1` [Example 228, N-[2-Chloro-5-(1-{3-[4-(3-chloro-phenyl)-piperazin-1-yl]-propyl}-5-methanesulfonyl-4,5,6,7-tetrahydro-1H-pyrazolo[4,3-c]pyridin-3-yl)-phenyl]-4-methoxy-benzamide], the IC50 was found to be 0.76 µM.

As for `CCc1ccc(C(=O)Nc2cc(-c3nn(CCCN4CCN(c5cccc(Cl)c5)CC4)c4c3CN(S(C)(=O)=O)CC4)ccc2Cl)cc1` [Example 230, N-[2-Chloro-5-(1-{3-[4-(3-chloro-phenyl)-piperazin-1-yl]-propyl}-5-methanesulfonyl-4,5,6,7-tetrahydro-1H-pyrazolo[4,3-c]pyridin-3-yl)-phenyl]-4-ethyl-benzamide], the IC50 came to 0.78 µM. `CS(=O)(=O)N1CCc2c(c(-c3ccc(Cl)c(NC(=O)c4ccc(C(F)(F)F)cc4)c3)nn2CCCN2CCN(c3cccc(Cl)c3)CC2)C1` [Example 233, N-[2-Chloro-5-(1-{3-[4-(3-chloro-phenyl)-piperazin-1-yl]-propyl}-5-methanesulfonyl-4,5,6,7-tetrahydro-1H-pyrazolo[4,3-c]pyridin-3-yl)-phenyl]-4-trifluoromethyl-benzamide]: the IC50 is 0.83 µM. As to `CS(=O)(=O)N1CCc2c(c(-c3ccc(Cl)c(NC(=O)c4ccc(F)cc4)c3)nn2CCCN2CCN(c3cccc(Cl)c3)CC2)C1` [Example 234, N-[2-Chloro-5-(1-{3-[4-(3-chloro-phenyl)-piperazin-1-yl]-propyl}-5-methanesulfonyl-4,5,6,7-tetrahydro-1H-pyrazolo[4,3-c]pyridin-3-yl)-phenyl]-4-fluoro-benzamide], the IC50 was found to be 0.84 µM. The value for `CN(C)CC(=O)NCc1cc(-c2nn(CC(O)CN3CCC(N4CCCC4)CC3)c3c2CN(S(C)(=O)=O)CC3)ccc1C(F)(F)F` (stereo not shown) [Example 243, 2-Dimethylamino-N-(5-{1-[2-hydroxy-3-(4-pyrrolidin-1-yl-piperidin-1-yl)-propyl]-5-methanesulfonyl-4,5,6,7-tetrahydro-1H-pyrazolo[4,3-c]pyridin-3-yl}-2-trifluoromethyl-benzyl)-acetamide] was 5.3 µM.
